Laboratory results: patent publication US10501438B2, “Aryl-substituted dihydroquinolinones, their preparation and their use as pharmaceuticals” (NEOMED Institute, priority 2015, dated 2019)

Columns and labels:
[1] = target: BRD4(BD1) (Homo sapiens (Human), UniProt O60885); assay: In vitro bromodomain inhibition assay (AlphaLISA); assay type: binding; settings: His-tagged BRD4 BD1 200 nM, biotinylated H4-tetraacetyl peptide 200 nM
Procedure: a) In Vitro Bromodomain Inhibition Assay
To measure activity of bromodomain inhibitors, a His-epitope tagged BRD4 BD149-170 is purchased from BPS Bioscience. BRD4 binding and inhibition is assessed by monitoring the engagement of biotinylated H4-tetraacetyl peptide (H4K5/8/12/16; AnaSpec #64989-025) with the target using the AlphaLISA technology (Perkin-Elmer). Specifically, in a 384 well OptiPlate, BRD4(BD1) (200 nM final) is pre-incubated with either DMSO (final 1.0% DMSO) or a compound dilution series in DMSO. All reagents are diluted in assay buffer containing 50 mM HEPES (pH 7.4), 100 mM NaCl, 0.1% (w/v) BSA, and 0.05% (w/v) CHAPS. After a 30 min incubation at rt, H4 peptide is added (200 nM final) and the reaction is incubated an additional 30 min at rt. Alpha streptavidin donor beads and AlphaLISA nickel chelate acceptor beads are then added to a final concentration of 10 μg/mL each. After one hour, equilibration plates are read on an Envision instrument and IC50s calculated using a four parameter non-linear curve fit (results are shown in Table 2).

[2] = tested on: human C-Myc transcription in MV-4-11 cells; assay: Transcription of human C-Myc in human leukemic MV-4-11 cells (QuantiGene 2.0); assay type: cell-based; settings: Homo sapiens, MV4-11, 4 h, inhibition of C-Myc mRNA, 4 hours treatment
How it was run: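 MV-4-11 cells (8,000/well) exposed to 1:3 serial compound dilutions for 4 h, 0.1% final DMSO, in Iscove's medium with 10% FBS. C-Myc mRNA quantified in lysates by QuantiGene 2.0 branched-DNA hybridisation with a gene-specific probe and luminescence read-out.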

| IC50 [1] [nM] | IC50 [2] [nM] | SMILES |
| --- | --- | --- |
| 180 | 240 | Cc1cc(-c2cc3c(c(OCc4ccccc4)c2)NC(=O)CC3)cn(C)c1=O [Compound 17, 8-(benzyloxy)-6-(1,5-dimethyl-6-oxo-1,6-dihydropyridin-3-yl)-3,4-dihydroquinolin-2(1H)-one] |
| 420 | 790 | Cc1cc(-c2cc3c(c(NC4CCOCC4)c2)NC(=O)CC3)cn(C)c1=O [Compound 18, 6-(1,5-dimethyl-6-oxo-3-pyridyl)-8-(tetrahydropyran-4-ylamino)-3,4-dihydro-1H-quinolin-2-one] |
| 700 | 900 | Cc1cc(-c2cc3c(c(CNC4CCCC4)c2)NC(=O)CC3)cn(C)c1=O [Compound 19, 8-[(cyclopentylamino)methyl]-6-(1,5-dimethyl-6-oxo-3-pyridyl)-3,4-dihydro-1H-quinolin-2-one] |
